Tested on: 22Rv1 xenografts
Experiment: 22Rv1 xenograft tumor growth
Format: in vivo, mouse
Conditions: 5 mg/kg, i.p., 5 times a week, 21-24 days

Compound: O=C(Cc1ccccc1[N+](=O)[O-])Nc1ccc(-c2ccc(C(O)(C(F)(F)F)C(F)(F)F)cc2F)cc1 [XY018, N-(2′-fluoro-4′-(1,1,1,3,3,3-hexafluoro-2-hydroxypropan-2-yl)-[1,1′-biphenyl]-4-yl)-2-(2-nitrophenyl)acetamide]
- tumor growth inhibition: strong tumor growth inhibition
